This is an account of results in patent publication US4582847A, “4-chloro-2-phenylimidazole-5-acetic acid derivatives and use as diuretics and hypotensives” (Takeda Chemical Industries, Ltd., priority 1983, dated 1986).

The subject of assay [1] is Angiotensin II (rabbit aortic vessel). Put plainly: Angiotensin II-antagonizing activity (rabbit aortic vessel). Particulars: AII 4×10^-9 M, 15 min treatment. On the procedure:
Angiotensin II (briefly, AII)-antagonizing activity of the compound (I) of this invention (rabbit aortic vessel)
The method of preparing the aortic vessel specimens and the reaction conditions employed were as described in European Journal of Pharmacology 18, 316 (1972). AII was used in a concentration of 4×10^-9 M, and the change in isometric tension of the untreated vessel specimen was measured as control. As a test, the vessel was treated with the test compound for 15 minutes and a similar determination was made. The two results were compared and the inhibition rate was calculated by means of the following formula.
Inhibition rate (%) [formula]

For assay [2], the system named is dogs with renal hypertension. Put plainly: Antihypertensive action in dogs with renal hypertension. In kind it is in vivo, beagle dog. Particulars: dose 10 mg, oral; for Diastolic blood pressure after 1 hr. / Systolic blood pressure after 1 hr.: 1 hr after administration; for Diastolic blood pressure after 2 hrs. / Systolic blood pressure after 2 hrs.: 2 hrs after administration; for Diastolic blood pressure after 4 hrs. / Systolic blood pressure after 4 hrs.: 4 hrs after administration; for Diastolic blood pressure after 8 hrs. / Systolic blood pressure after 8 hrs.: 8 hrs after administration; for Diastolic blood pressure before administration / Systolic blood pressure before administration: before administration (baseline). An excerpt:
Antihypertensive action in dogs with renal hypertension
Male adult beagle dogs were laparotomized under pentobarbital anesthesia and the left renal artery was constricted with a silver clip so as to reduce the renal blood flow to about 30%. After the operation, the animals were kept for at least 2 months and the individuals having a systolic pressure of at least about 180 mmHg were used in the test. […] Blood pressure determinations were made using a plethysmograph (Narco, DE-300). Each drug was sealed in a gelatin capsule and administered by the oral route. The blood pressure was monitored up to 8 hours after administration.

In assay [3] the test system is rats. Nature of the assay: Diuretic action in rats (method of W. L. Lipschitz). Particulars: rat, 30 mg/kg P.O., n = 6; control group = 1.00. In kind it is in vivo. On the procedure: (§1) The test was conducted in rats and dogs, in accordance with the method of W. L. Lipschitz. The numerals in the table denote the values for the treated groups with the value for control group being taken as 1.00. [formula]

The subject of assay [4] is dogs. Nature of the assay: Diuretic action in dogs (method of W. L. Lipschitz). Particulars: dog, n = 3, control group = 1.00. In kind it is in vivo. On the procedure:
as §1

Consider `O=C(O)Cc1c(Cl)nc(-c2ccccc2)n1Cc1ccc(O)cc1` [4-Chloro-1-(4-hydroxybenzyl)-2-phenylimidazole-5-acetic acid, reference compound], for which the “Inhibition rate (%)” value in assay [1] (concentration of drug 10^-5 M) was 46%.
Turning to `COc1ccc(Cn2c(-c3ccccc3)nc(Cl)c2CC(=O)O)cc1C` [4-Chloro-1-(4-methoxy-3-methylbenzyl)-2-phenylimidazole-5-acetic acid, reference compound], in assay [2], the “Diastolic blood pressure after 1 hr.” value was found to be 113 ± 6 mmHg, the “Systolic blood pressure after 1 hr.” value is reported as 185 ± 5 mmHg, the “Diastolic blood pressure after 2 hrs.” value is 116 ± 7 mmHg and the “Systolic blood pressure after 2 hrs.” value was determined as 181 ± 6 mmHg. Also, in assay [2], the “Diastolic blood pressure after 4 hrs.” value was found to be 115 ± 4 mmHg, the “Systolic blood pressure after 4 hrs.” value is reported as 181 ± 2 mmHg, the “Diastolic blood pressure after 8 hrs.” value worked out at 115 ± 5 mmHg and the “Systolic blood pressure after 8 hrs.” value is 188 ± 5 mmHg. For the same compound, in assay [2], the “Diastolic blood pressure before administration” value came out at 123 ± 6 mmHg and the “Systolic blood pressure before administration” value was determined as 189 ± 2 mmHg. In assay [3], the “Diuretic action UK V” value worked out at 3.33, the “Diuretic action UNa V” value is listed as 6.36 and the “Diuretic action UV” value came to 8.25. Moreover, in assay [4] (3 mg/kg P.O.), the “Diuretic action UK V” value was found to be 0.86, the “Diuretic action UNa V” value came out at 1.10 and the “Diuretic action UV” value is on record as 1.20. In addition, in assay [4] (30 mg/kg P.O.), the “Diuretic action UK V” value stood at 2.53, the “Diuretic action UNa V” value was determined as 1.73 and the “Diuretic action UV” value amounted to 1.67.
Regarding `Cc1cc(Cn2c(-c3ccccc3)nc(Cl)c2CC(=O)O)ccc1O` [Example 1, 4-chloro-1-(4-hydroxy-3-methylbenzyl)-2-phenylimidazole-5-acetic acid], the “Inhibition rate (%)” value in assay [1] (concentration of drug 10^-5 M) stood at 100%. For the same compound, the “Inhibition rate (%)” value in assay [1] (concentration of drug 10^-6 M) came to 75%. Besides, in assay [2], the “Diastolic blood pressure after 1 hr.” value worked out at 123 ± 4 mmHg, the “Systolic blood pressure after 1 hr.” value worked out at 189 ± 5 mmHg, the “Diastolic blood pressure after 2 hrs.” value turned out to be 93 ± 7 mmHg and the “Systolic blood pressure after 2 hrs.” value was found to be 165 ± 6 mmHg. For the same compound, in assay [2], the “Diastolic blood pressure after 4 hrs.” value is recorded as 89 ± 7 mmHg, the “Systolic blood pressure after 4 hrs.” value was determined as 155 ± 8 mmHg, the “Diastolic blood pressure after 8 hrs.” value stood at 110 ± 8 mmHg and the “Systolic blood pressure after 8 hrs.” value amounted to 167 ± 8 mmHg. Moreover, in assay [2], the “Diastolic blood pressure before administration” value came to 124 ± 2 mmHg and the “Systolic blood pressure before administration” value is listed as 201 ± 5 mmHg. In assay [4] (3 mg/kg P.O.), the “Diuretic action UK V” value was 2.20, the “Diuretic action UNa V” value came to 2.97 and the “Diuretic action UV” value is recorded as 3.41. For the same compound, in assay [4] (30 mg/kg P.O.), the “Diuretic action UK V” value was 4.88, the “Diuretic action UNa V” value was 4.24 and the “Diuretic action UV” value came to 5.11.
Turning to `CC(=O)Oc1ccc(Cn2c(-c3ccccc3)nc(Cl)c2CC(=O)O)cc1C` [Ref. Example 3, 4-chloro-1-(4-acetoxy-3-methylbenzyl)-2-phenylimidazole-5-acetic acid], in assay [3], the “Diuretic action UK V” value came out at 2.92, the “Diuretic action UNa V” value was 6.54 and the “Diuretic action UV” value was found to be 8.22.
In the case of `CCCC(=O)Oc1ccc(Cn2c(-c3ccccc3)nc(Cl)c2CC(=O)O)cc1C` [Ref. Example 4, 4-chloro-1-(4-n-butyryloxy-3-methylbenzyl)-2-phenylimidazole-5-acetic acid], in assay [3], the “Diuretic action UK V” value stood at 2.80, the “Diuretic action UNa V” value was 5.82 and the “Diuretic action UV” value was 6.69.
